In patent US4794187A, “^35 S-labelled 1.4-dihydropyridines” (Bayer Aktiengesellschaft, priority 1986, dated 1988):

What was measured:
skeletal muscle receptor = target: T1, skeletal muscle receptor (Homo sapiens, UniProt Q13698); test: binding to the skeletal muscle 1,4-dihydropyridine receptor (radioligand dissociation); conditions: 37° C., read-out: dissociation rate constant (converted)
T1 construct: dissociation rate constant (at 37° C.) of 0.070±0.01 min^-1 on skeletal muscle; from tissue

brain receptor = test: binding to the brain 1,4-dihydropyridine receptor (radioligand dissociation); conditions: 37° C.

T1 sequence (Q13698 whole entry): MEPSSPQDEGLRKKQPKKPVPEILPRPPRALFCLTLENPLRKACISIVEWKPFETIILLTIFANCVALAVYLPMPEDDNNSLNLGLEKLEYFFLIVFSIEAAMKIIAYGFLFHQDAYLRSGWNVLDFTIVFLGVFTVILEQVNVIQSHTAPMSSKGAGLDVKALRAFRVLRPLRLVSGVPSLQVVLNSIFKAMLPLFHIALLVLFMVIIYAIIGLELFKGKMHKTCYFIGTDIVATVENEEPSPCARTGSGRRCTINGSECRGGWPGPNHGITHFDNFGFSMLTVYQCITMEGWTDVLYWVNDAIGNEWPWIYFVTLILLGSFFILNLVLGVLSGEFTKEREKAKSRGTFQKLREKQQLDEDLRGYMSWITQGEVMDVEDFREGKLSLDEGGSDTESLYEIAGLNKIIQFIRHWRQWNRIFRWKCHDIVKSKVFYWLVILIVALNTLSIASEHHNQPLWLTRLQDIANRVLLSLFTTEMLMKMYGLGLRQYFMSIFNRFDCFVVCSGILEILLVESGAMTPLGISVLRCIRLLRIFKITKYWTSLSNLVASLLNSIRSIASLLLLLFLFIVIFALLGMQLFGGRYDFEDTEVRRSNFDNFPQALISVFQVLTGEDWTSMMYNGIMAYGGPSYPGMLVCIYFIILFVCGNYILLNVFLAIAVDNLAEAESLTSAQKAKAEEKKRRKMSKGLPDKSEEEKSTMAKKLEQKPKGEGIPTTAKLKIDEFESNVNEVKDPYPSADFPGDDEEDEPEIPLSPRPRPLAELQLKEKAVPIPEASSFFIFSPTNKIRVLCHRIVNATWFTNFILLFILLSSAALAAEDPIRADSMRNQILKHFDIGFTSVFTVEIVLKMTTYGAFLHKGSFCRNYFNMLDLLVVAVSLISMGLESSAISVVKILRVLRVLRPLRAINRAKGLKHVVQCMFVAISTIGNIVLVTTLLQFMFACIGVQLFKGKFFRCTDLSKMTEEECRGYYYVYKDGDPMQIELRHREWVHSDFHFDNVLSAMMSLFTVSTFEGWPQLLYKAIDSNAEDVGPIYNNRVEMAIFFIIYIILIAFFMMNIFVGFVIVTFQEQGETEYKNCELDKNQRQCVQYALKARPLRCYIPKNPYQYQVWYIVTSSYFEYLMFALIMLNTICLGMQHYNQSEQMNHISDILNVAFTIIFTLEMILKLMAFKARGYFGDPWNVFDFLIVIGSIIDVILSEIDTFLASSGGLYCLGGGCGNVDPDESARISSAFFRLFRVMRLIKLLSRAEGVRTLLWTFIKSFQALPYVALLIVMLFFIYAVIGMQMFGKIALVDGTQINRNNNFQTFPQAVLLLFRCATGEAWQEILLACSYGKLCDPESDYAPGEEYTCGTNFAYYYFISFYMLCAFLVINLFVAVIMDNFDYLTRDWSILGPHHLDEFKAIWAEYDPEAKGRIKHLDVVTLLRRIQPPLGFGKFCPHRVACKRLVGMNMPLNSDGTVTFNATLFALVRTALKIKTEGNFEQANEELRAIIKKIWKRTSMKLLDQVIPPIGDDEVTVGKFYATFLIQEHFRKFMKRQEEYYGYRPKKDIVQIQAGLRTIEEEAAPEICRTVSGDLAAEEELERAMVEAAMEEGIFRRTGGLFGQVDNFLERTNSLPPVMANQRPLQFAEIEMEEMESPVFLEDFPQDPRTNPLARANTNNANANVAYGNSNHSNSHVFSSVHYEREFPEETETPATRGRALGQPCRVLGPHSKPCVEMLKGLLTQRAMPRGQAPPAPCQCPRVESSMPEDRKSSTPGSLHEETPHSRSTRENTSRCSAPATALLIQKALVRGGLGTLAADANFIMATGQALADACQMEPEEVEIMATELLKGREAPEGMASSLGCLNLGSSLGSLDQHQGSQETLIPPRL
T1 sequence (P54289 25-957 partner limits assumed): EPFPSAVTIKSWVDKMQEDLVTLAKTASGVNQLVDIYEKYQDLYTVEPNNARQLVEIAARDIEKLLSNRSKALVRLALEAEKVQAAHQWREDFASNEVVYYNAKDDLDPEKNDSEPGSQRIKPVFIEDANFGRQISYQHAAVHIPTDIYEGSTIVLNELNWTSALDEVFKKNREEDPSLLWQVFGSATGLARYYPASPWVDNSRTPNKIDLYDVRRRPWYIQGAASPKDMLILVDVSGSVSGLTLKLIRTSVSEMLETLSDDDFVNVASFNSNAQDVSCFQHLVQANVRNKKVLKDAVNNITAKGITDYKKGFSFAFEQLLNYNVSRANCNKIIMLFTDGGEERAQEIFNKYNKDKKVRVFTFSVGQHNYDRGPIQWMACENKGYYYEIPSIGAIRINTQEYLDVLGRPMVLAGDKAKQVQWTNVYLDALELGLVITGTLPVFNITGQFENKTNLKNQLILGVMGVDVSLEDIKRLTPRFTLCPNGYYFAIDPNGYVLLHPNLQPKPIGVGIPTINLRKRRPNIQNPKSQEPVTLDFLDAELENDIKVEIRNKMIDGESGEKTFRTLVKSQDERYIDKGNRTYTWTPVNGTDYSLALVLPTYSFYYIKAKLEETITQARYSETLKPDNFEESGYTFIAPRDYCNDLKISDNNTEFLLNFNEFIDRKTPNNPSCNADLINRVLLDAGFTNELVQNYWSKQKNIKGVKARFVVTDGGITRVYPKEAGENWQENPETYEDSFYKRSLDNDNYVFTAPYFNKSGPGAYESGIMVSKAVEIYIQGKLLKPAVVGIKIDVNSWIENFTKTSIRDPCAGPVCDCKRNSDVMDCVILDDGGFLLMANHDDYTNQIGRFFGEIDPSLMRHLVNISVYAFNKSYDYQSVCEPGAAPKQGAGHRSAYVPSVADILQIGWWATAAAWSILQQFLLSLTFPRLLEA
T1 sequence (P54289 958-1103 partner limits assumed): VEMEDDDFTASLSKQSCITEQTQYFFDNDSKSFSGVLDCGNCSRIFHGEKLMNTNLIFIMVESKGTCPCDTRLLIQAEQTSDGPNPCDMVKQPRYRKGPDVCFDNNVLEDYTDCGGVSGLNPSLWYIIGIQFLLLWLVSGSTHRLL
T1 sequence (Q02641 whole entry partner): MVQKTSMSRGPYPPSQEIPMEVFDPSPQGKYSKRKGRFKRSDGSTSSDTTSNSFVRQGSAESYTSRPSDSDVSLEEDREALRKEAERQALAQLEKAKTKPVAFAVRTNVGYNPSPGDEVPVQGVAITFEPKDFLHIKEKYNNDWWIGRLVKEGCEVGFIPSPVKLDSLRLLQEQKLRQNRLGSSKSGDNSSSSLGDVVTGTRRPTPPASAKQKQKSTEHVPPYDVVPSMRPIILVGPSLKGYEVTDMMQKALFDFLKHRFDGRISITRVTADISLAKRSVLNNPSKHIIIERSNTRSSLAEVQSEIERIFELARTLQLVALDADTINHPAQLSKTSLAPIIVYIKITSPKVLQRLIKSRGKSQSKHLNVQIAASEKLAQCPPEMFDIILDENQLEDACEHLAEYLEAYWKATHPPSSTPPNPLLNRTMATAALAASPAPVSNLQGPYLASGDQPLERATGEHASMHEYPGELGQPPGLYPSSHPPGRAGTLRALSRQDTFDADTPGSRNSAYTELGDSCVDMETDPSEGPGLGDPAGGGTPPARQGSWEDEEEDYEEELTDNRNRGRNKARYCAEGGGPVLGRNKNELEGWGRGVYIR
T1 sequence (Q06432 whole entry partner): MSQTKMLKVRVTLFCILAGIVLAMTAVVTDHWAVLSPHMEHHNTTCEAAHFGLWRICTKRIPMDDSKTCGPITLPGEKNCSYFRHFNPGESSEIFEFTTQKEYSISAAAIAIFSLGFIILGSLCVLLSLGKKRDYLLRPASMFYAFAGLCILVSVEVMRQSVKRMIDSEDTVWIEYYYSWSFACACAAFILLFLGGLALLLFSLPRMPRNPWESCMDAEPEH

## CCOC(=O)C1=C(C)NC(C)=C(C(=O)OCCNC(=O)[C@H](CC[35S]C)NC(=O)OC(C)(C)C)C1c1ccccc1C(F)(F)F (some centres unmarked) [Example 1]
Skeletal muscle receptor
  koff: 0.00117 s⁻¹
Brain receptor
  dissociation rate constant: 0.02 min⁻¹
